Laboratory results reported in patent US20150005347A1, “NITROGEN-CONTAINING HETEROCYCLIC DERIVATIVE HAVING 2-IMINO GROUP AND PEST CONTROL AGENT INCLUDING THE SAME” (MEIJI SEIKA PHARMA CO., LTD., priority 2012, published 2015).
Where two headings read alike, the source gives them in different places.

Legend:
Assay type in all cases: in vivo
[1] = tested on: Nilaparvata lugens; test: Pest control test of Nilaparvata lugens, soil irrigation treatment; conditions: soil irrigation treatment
Experimental: Test Example 12 Pest Control Test of Nilaparvata lugens
A rice seedling in pot culture was subjected to soil irrigation treatment with a drug solution of the compound of the present invention at a predetermined concentration, which had been prepared so as to be a 10% acetone water. Three days after the treatment, ten second instar larvae of Nilaparvata lugens were each released thereto. Thereafter, the larvae were left to stand in a thermostatic chamber (16 hours of light period-8 hours of dark period) at 25° C. […] The test was performed in duplicate.
(§1) Mortality of larvae(%)={number of dead larvae/(number of survived larvae+number of dead larvae)}×100

[2] = tested on: Laodelphax striatella; test: Pest control test of Laodelphax striatella, foliar spray on rice seedling; conditions: Laodelphax striatellus, foliar
Experimental: Test Example 6 Pest Control Test of Laodelphax striatella
A drug solution of the compound of the present invention at a predetermined concentration, which had been prepared so as to be a 50% acetone water (0.05% Tween20 available), was foliar sprayed to a rice seedling in pot culture. After an air drying process, second instar larvae were released thereto. Thereafter, the larvae were left to stand in a thermostatic chamber (16 hours of light period-8 hours of dark period) at 25° C. […] Test in duplicate.
as §1

[3] = tested on: imidacloprid susceptible populations of Nilaparvata lugens; test: Soil irrigation test, imidacloprid susceptible populations of Nilaparvata lugens
Outline: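 Potted rice seedlings soil-irrigated with compound in 10% acetone water at set concentrations; larvae held at 25 °C, 16 h light/8 h dark. Mortality % = dead/(dead + survivors) ×100, duplicate. Susceptible population: Kagoshima-collected, long-term lab-reared.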

[4] = tested on: Aphis gossypii; test: Pest control test of Aphis gossypii, cucumber leaf disk foliar spray; conditions: Aphis gossypii, foliar
Outline: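 Cucumber leaf disks (2.0 cm) sprayed with compound at a set concentration in 50% acetone water with 0.05% Tween20, air-dried, then infested with first instar larvae; held at 25 °C, 16 h light/8 h dark. Larval mortality (%) = dead/(survived + dead) × 100; duplicate.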

[5] = tested on: Oulema oryzae; test: Pest control test of Oulema oryzae, soil irrigation treatment; conditions: 0.05 mg/seedling, three days after release
Experimental: Test Example 13 Pest Control Test of Oulema oryzae
A rice seedling in pot culture was subjected to soil irrigation treatment with a drug solution of the compound of the present invention at a predetermined concentration, which had been prepared so as to be a 10% acetone water. Three days after the treatment, two second instar larvae of Oulema oryzae were each released thereto. Thereafter, the larvae were left to stand in a thermostatic chamber (16 hours of light period-8 hours of dark period) at 25° C. […] The test was performed in duplicate.
as §1

[6] = tested on: Nephotettix cincticeps; test: Pest control test of Nephotettix cincticeps, soil irrigation treatment; conditions: for % Mortality, Test Example 14 Nephotettix cincticeps: soil irrigation treatment
Experimental: Test Example 14 Pest Control Test of Nephotettix cincticeps
A rice seedling in pot culture was subjected to soil irrigation treatment with a drug solution of the compound of the present invention at a predetermined concentration, which had been prepared so as to be a 10% acetone water. Three days after the treatment, five second instar larvae of Nephotettix cincticeps were each released thereto. Thereafter, the larvae were left to stand in a thermostatic chamber (16 hours of light period-8 hours of dark period) at 25° C. […] The test was performed in duplicate.
as §1

[7] = tested on: susceptible populations of Sogatella furcifera; test: Soil irrigation test, susceptible populations of Sogatella furcifera
Experimental: (§2) A rice seedling in pot culture was subjected to soil irrigation treatment with a drug solution of the compound of the present invention at a predetermined concentration, which had been prepared so as to be a 10% acetone water. […] Thereafter, the larvae were left to stand in a thermostatic chamber (16 hours of light period-8 hours of dark period) at 25° C. […] The test was performed in duplicate.
as §1
Further, for comparison, the test against a populations of Sogatella furcifera which is highly susceptible to fipronil was performed by the same method as described above, and the results thereof are shown in Table 44.
(§3) In addition, for the origin of test pests, bugs collected within the city of Odawara in 2010 as the drug resistant Sogatella furcifera, and bugs collected within the city of Chigasaki in 1970 and then successively reared indoors for a long time as the susceptible populations of Sogatella furcifera were used.

[8] = tested on: Sogatella furcifera exhibiting drug resistance to fipronil; test: Soil irrigation test, Sogatella furcifera exhibiting drug resistance to fipronil
Experimental: Test Example 19 Pest Control Test of Sogatella furcifera
as §2, §1, §3

[9] = tested on: Laodelphax striatella exhibiting drug resistance to fipronil; test: Soil irrigation test, Laodelphax striatella exhibiting drug resistance to fipronil
Experimental: Test Example 20 Pest Control Test of Laodelphax striatella
as §2, §1
In addition, for the origin of test pests, bugs collected within the Kumamoto prefecture in 2006 as the drug resistant Laodelphax striatella, and bugs successively reared indoors for a long time as the susceptible populations of Laodelphax striatella were used.

[10] = tested on: Callosobruchus chinensis; test: Pest control test against Callosobruchus chinensis, topical treatment of adults
Experimental: Test Example 5 Pest control test against Callosobruchus chinensis
1 μL (/head) of a drug solution of the compound of the present invention prepared at a predetermined concentration with acetone was treated to the back of Callosobruchus chinensis adults. After the drug treatment, the adults were transferred to a plastic cup and left to stand in a thermostatic chamber at 25° C.
Rate of agonized adults(%)={number of dead adults/(number of survived adults+number of dead adults)}×100

[11] = 72 h, read-out: mortality of larvae
[12] = read-out: % Mortality, Test Example3 Aphis gossypii
[13] = fipronil-resistant vs susceptible

## FC(F)(F)C(=S)/N=c1\ccccn1Cc1ccc(Cl)nc1 [Compound 1-20, N-[1-((6-chloropyridin-3-yl)methyl)pyridin-2(1H)-ylidene]-2,2,2-trifluoroethanethioamide]
[1]; 0.005 mg/pot
  % Mortality, Test Example 12 Nilaparvata lugens: 80%
[1]; 0.01 mg/pot
  % Mortality, Test Example 12 Nilaparvata lugens: 85%
[1]; 0.05 mg/pot
  % Mortality, Test Example 12 Nilaparvata lugens: 100%
[2]; 144 h, read-out: mortality of larvae
  mortality at 1.25 ppm: ≥ 80%
[2]; read-out: % Mortality, Test Example6 Laodelphax striatella
  mortality at 1.25 ppm: 95%
[3]; Rate 0.01 mg/pot
  Insecticidal effects against Nilaparvata lugens (mortality of larvae %), Susceptible populations three days after the treatment: 95%
[3]; Rate 0.05 mg/pot
  Insecticidal effects against Nilaparvata lugens (mortality of larvae %), Susceptible populations three days after the treatment: 96%
[4]; [11]
  mortality at 20 ppm: ≥ 80%
  mortality at 100 ppm: ≥ 80%
[4]; [12]
  mortality at 1.25 ppm: 75%
  mortality at 5 ppm: 100%
  mortality at 20 ppm: 100%
  mortality at 100 ppm: 100%
[5]
  mortality of larvae: ≥ 80%
[6]; 0.0001 mg/pot
  % Mortality, Test Example 14 Nephotettix cincticeps: 67%
[6]; 0.001 mg/pot
  % Mortality, Test Example 14 Nephotettix cincticeps: 67%
[6]; 0.01 mg/pot
  % Mortality, Test Example 14 Nephotettix cincticeps: 100%
[6]; soil irrigation, 0.05 mg/seedling, three days after release
  mortality of larvae: ≥ 80%
[7]; Rate 0.005 mg/pot
  Insecticidal effects against Sogatella furcifera (mortality of larvae %), Susceptible populations six days after the treatment: 75%
[7]; Rate 0.01 mg/pot
  Insecticidal effects against Sogatella furcifera (mortality of larvae %), Susceptible populations six days after the treatment: 88%
[8]; Rate 0.005 mg/pot
  Insecticidal effects against Sogatella furcifera (mortality of larvae %), Drug resistant populations six days after the treatment: 53%
[8]; Rate 0.01 mg/pot
  Insecticidal effects against Sogatella furcifera (mortality of larvae %), Drug resistant populations six days after the treatment: 88%
[8]; fipronil-resistant
  insecticidal effects against drug resistant Sogatella furcifera: high insecticidal effects
[8]; [13]
  mortality of larvae against drug resistant populations compared with susceptible populations of Sogatella furcifera: equivalent mortality of larvae
[9]; Rate 0.005 mg/pot, drug resistant populations
  Insecticidal effects against Laodelphax striatella (mortality of larvae %), Drug resistant populations six days after the treatment: 79%
[9]; fipronil-resistant
  insecticidal effects against drug resistant Laodelphax striatella: high insecticidal effects
[9]; [13]
  mortality of larvae against drug resistant populations compared with susceptible populations of Laodelphax striatella: equivalent mortality of larvae
[10]; 0.1 μg/head on the back of adults, twenty four hours after treatment
  mortality of adults: ≥ 80%
[10]; Concentration 10 (ppm)
  % Mortality, Test Example5 Callosobruchus chinensis: 100%
[10]; Concentration 100 (ppm)
  % Mortality, Test Example5 Callosobruchus chinensis: 100%
